# Measured values reported in patent US11654199B2 (BOLT BIOTHERAPEUTICS, INC., priority 2019, dated 2023).
# Biological target: T1, human TLR7 (Homo sapiens, UniProt Q9NYK1)
# T1 construct: host or cells: HEK293 reporter cells
# T1 sequence (Q9NYK1 27-1049): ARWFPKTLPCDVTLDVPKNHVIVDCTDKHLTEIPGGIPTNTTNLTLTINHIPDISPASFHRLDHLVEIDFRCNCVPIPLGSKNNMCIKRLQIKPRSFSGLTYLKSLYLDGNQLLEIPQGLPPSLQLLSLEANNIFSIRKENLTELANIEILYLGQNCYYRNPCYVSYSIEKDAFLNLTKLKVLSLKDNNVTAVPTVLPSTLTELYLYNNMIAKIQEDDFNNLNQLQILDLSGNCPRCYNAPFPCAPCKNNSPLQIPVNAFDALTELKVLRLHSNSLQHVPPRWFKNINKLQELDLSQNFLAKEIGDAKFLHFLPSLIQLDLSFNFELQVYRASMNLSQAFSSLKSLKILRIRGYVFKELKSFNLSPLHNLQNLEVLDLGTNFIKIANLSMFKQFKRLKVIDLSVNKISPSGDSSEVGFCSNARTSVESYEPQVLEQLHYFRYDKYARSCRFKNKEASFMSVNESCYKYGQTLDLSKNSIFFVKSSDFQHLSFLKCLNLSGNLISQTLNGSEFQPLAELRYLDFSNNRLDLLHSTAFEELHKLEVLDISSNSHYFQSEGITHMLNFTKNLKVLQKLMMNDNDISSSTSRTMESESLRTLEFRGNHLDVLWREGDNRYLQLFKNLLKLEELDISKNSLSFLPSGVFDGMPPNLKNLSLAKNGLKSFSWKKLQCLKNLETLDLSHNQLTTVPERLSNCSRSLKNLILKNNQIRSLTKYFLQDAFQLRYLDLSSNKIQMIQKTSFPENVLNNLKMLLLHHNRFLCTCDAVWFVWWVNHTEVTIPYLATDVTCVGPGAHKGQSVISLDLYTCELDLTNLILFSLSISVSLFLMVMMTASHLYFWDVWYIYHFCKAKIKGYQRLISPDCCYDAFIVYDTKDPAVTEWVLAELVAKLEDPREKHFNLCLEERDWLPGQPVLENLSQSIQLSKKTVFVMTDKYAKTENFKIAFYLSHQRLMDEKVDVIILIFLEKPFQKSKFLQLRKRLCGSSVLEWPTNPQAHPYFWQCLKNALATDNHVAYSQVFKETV
# Assay: HEK293 NFKB reporter assay, human TLR7
# Type: cell-based
# Settings: HEK293 NFKB reporter cells expressing human TLR7; read-out: HEK293 hTLR7 EC50
# Protocol: (§1) Each compound was synthesized, purified, and characterized by mass spectrometry and shown to have the mass indicated. Additional experimental procedures are found in the Examples. Activity against HEK293 NFKB reporter cells expressing human TLR7 or human TLR8 was measured according to Example 202.
# (§2) HEK293 reporter cells expressing human TLR7 or human TLR8 were purchased from Invivogen and vendor protocols were followed for cellular propagation and experimentation. Briefly, cells were grown to 80-85% confluence at 5% CO2 in DMEM supplemented with 10% FBS, Zeocin, and Blasticidin. Cells were then seeded in 96-well flat plates at 4×10^4 cells/well with substrate containing HEK detection medium and immunostimulatory molecules. Activity was measured using a plate reader at 620-655 nm wavelength.
row,EC50 [µM],SMILES
1,0.905,CCCN(Cc1ccc(CN)c(C(F)(F)F)c1)C(=O)C1=Cc2sccc2N=C(N)C1
2,7.77,"CCCN(CC#CCNC(=O)OC(C)(C)C)C(=O)C1=Cc2sc(Br)cc2N=C(N)C1 [TAZ-10, tert-butyl N-[4-[(5-amino-2-bromo-6H-thieno[3,2-b]azepine-7-carbonyl)-propyl-amino]but-2-ynyl]carbamate]"
3,> 9,CCCN(Cc1ccc(CN2CCNCC2)cc1)C(=O)C1=Cc2sccc2N=C(N)C1 [TAZ-37]
4,> 9,CCCN(CCC)C(=O)C1=Cc2sc(COCCCN)cc2N=C(N)C1 [TAZ-73]
5,1.62,CN(C)Cc1ccc(CN(CCC(F)(F)F)C(=O)C2=Cc3sc(CCCCCNC(=O)OC(C)(C)C)cc3N=C(N)C2)cc1 [TAZ-116]
6,2.88,CCCN(C[C@H]1CC[C@@H](CNC(=O)OC(C)(C)C)CC1)C(=O)C1=Cc2sccc2N=C(N)C1 [TAZ-119]
7,4.63,CCCN(C(=O)C1=Cc2sc(CCCCCNC(=O)OC(C)(C)C)cc2N=C(N)C1)C1CC1 [TAZ-123]
8,2.71,CCCN(CC1CC1)C(=O)C1=Cc2sc(CCCCCNC(=O)OC(C)(C)C)cc2N=C(N)C1 [TAZ-125]
9,4.21,CCCN(CCCNC(=O)CC(C)(C)C)C(=O)C1=Cc2sc(CN3CCNCC3)cc2N=C(N)C1 [TAZ-139]
10,0.827,CCCN(CCCNC(=O)C(C)(C)C)C(=O)C1=Cc2sc(CCCCCN)cc2N=C(N)C1 [TAZ-142]
11,1.88,CCCN(Cc1ccc(CN(C)C)cc1C(F)(F)F)C(=O)C1=Cc2sc(CCCCCNC(=O)OC(C)(C)C)cc2N=C(N)C1 [TAZ-143]
12,3.13,CCCN(CCCNC(=O)OC1CCC1)C(=O)C1=Cc2sc(CCC3CCN(C(=O)OC(C)(C)C)CC3)cc2N=C(N)C1 [TAZ-167]
13,3.17,CCCN(CCCNC(=O)OC1CCC1)C(=O)C1=Cc2sc(CN3CCNCC3)cc2N=C(N)C1 [TAZ-169]
14,7.69,CCCN(OCC)C(=O)C1=Cc2sc(C#CC3CCN(C(=O)OC(C)(C)C)CC3)cc2N=C(N)C1 [TAZ-173]
15,3.65,CCCN(CCCNC(=O)OC1CCC1)C(=O)C1=Cc2sc(CN3CCN(c4ccc(C(=O)OC)cc4)CC3)cc2N=C(N)C1 [TAZ-180]
16,2.03,CCCN(CCCNC(=O)OC1CCC1)C(=O)C1=Cc2sc(CC3CNC3)cc2N=C(N)C1 [TAZ-181]
17,3.7,"CCCN(CCCNC(=O)OC1CCC1)C(=O)C1=Cc2sc(CC3CCNCC3)cc2N=C(N)C1 [TAZ-185, cyclobutyl N-[3-[[5-amino-2-(4-piperidylmethyl)-6H-thieno[3,2-b]azepine-7-carbonyl]-propyl-amino]propyl]carbamate]"
18,1.81,CCCN(CCCNC(=O)OC1CCC1)C(=O)C1=Cc2sc(CCC3CNC3)cc2N=C(N)C1 [TAZ-197]

# Biological target: T2, human TLR8 (Homo sapiens, UniProt Q9NR97)
# T2 construct: host or cells: HEK293 reporter cells
# T2 sequence (Q9NR97 27-1041): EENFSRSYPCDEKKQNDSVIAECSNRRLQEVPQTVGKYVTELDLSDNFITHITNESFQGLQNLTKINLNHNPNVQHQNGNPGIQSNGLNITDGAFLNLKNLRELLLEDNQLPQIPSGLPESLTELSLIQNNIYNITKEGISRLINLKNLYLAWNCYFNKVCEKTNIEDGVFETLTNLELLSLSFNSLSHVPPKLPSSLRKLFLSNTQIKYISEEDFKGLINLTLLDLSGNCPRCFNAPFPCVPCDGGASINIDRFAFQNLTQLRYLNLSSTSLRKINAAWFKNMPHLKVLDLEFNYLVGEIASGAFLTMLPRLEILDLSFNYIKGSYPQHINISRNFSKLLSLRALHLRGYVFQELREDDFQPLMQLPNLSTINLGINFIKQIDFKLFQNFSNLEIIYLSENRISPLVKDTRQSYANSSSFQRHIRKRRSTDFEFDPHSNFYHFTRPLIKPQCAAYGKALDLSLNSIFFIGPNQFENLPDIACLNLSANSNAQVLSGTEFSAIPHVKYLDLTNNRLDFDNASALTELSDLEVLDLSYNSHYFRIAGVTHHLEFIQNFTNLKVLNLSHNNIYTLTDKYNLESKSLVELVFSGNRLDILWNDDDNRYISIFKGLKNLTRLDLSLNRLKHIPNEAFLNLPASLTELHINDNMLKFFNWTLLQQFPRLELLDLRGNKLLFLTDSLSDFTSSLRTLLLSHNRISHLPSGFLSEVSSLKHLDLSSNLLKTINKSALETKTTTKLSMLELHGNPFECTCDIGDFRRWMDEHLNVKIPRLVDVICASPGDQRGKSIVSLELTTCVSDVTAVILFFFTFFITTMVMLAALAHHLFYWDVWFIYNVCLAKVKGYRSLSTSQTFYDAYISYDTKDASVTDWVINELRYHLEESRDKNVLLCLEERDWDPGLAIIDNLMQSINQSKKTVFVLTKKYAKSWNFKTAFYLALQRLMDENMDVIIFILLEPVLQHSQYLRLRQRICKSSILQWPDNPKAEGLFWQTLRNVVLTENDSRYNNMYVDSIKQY
# Assay: HEK293 NFKB reporter assay, human TLR8
# Type: cell-based
# Settings: HEK293 NFKB reporter cells expressing human TLR8; read-out: HEK293 hTLR8 EC50
# Protocol: as §1, §2
row,EC50 [µM],SMILES
1,0.035,CCCN(Cc1ccc(CN)c(C(F)(F)F)c1)C(=O)C1=Cc2sccc2N=C(N)C1
2,2.39,"CCCN(CCC)C(=O)C1=Cc2sccc2N=C(N)C1 [TAZ-2, 5-amino-N,N-dipropyl-6H-thieno[3,2-b]azepine-7-carboxamide]"
3,4.94,"CCCN(CCC)C(=O)C1=Cc2sc(CCCCCN)cc2N=C(N)C1 [TAZ-14, 5-amino-2-(5-aminopentyl)-N,N-dipropyl-6H-thieno [3,2-b]azepine-7-carboxamide]"
4,6.11,"CCCN(CC#CCNC(=O)OC(C)(C)C)C(=O)C1=Cc2sccc2N=C(N)C1 [TAZ-16, tert-butyl N-[4-[(5-amino-6H-thieno[3,2-b]azepine-7-carbonyl)-propyl-amino]but-2-ynyl]carbamate]"
5,4.1,"CCCN(CC#CCN)C(=O)C1=Cc2sccc2N=C(N)C1 [TAZ-17, 5-amino-N-(4-aminobut-2-ynyl)-N-propyl-6H-thieno[3,2-b]azepine-7-carboxamide]"
6,0.641,"CCCN(Cc1ccc(CN)cc1)C(=O)C1=Cc2sccc2N=C(N)C1 [TAZ-30, 5-amino-N-(4-(aminomethyl)benzyl)-N-propyl-6H-thieno[3,2-b]azepine-7-carboxamide]"
7,0.311,"CCCN(Cc1ccc(CNC)cc1)C(=O)C1=Cc2sc(CCCCCN(C)C)cc2N=C(N)C1 [TAZ-65, 5-amino-2-[5-(dimethylamino)pentyl]-N-[[4-(methylaminomethyl)phenyl]methyl]-N-propyl-6H-thieno[3,2-b]azepine-7-carboxamide]"
8,4.3,CCCN(C[C@H]1C[C@H](CN)C1)C(=O)C1=Cc2sccc2N=C(N)C1 [TAZ-69]
9,7.95,CCCN(CCC)C(=O)C1=Cc2sc(COCCN)cc2N=C(N)C1 [TAZ-81]
10,2.83,CCCN(CCC)C(=O)C1=Cc2sc(CNC(=O)CN)cc2N=C(N)C1 [TAZ-92]
11,> 9,CCCN(C[C@H]1CC[C@H](CN)CC1)C(=O)C1=Cc2sccc2N=C(N)C1 [TAZ-97]
12,0.631,CCCN(C[C@H]1CC[C@H](CNC(=O)OC(C)(C)C)CC1)C(=O)C1=Cc2sccc2N=C(N)C1 [TAZ-98]
13,> 9,CCCN(C(=O)C1=Cc2sccc2N=C(N)C1)N(C)CC [TAZ-100]
14,0.203,CCCN(OCc1ccc(OC)cc1)C(=O)C1=Cc2sccc2N=C(N)C1 [TAZ-101]
15,4.44,CCCN(C[C@H]1CC[C@@H](CN)CC1)C(=O)C1=Cc2sccc2N=C(N)C1 [TAZ-118]
16,3.87,CCCN(CCC)C(=O)C1=Cc2scc(C)c2N=C(N)C1 [TAZ-168]
17,2.54,CCCN(OCC)C(=O)C1=Cc2sc(CC3CCN(C(=O)OC(C)(C)C)CC3)cc2N=C(N)C1 [TAZ-179]
18,0.964,CCCN(OCC)C(=O)C1=Cc2sc(C#CC3CN(C(=O)OC(C)(C)C)C3)cc2N=C(N)C1 [TAZ-187]
19,7.8,CCCN(OCC)C(=O)C1=Cc2sc(C#CC3(O)CN(C(=O)OC(C)(C)C)C3)cc2N=C(N)C1 [TAZ-188]
20,2.96,CCCN(OCC)C(=O)C1=Cc2sc(CN3Cc4ccc(NC(=O)CCN)cc4C3)cc2N=C(N)C1 [TAZ-201]
21,4.32,CCCN(OCC)C(=O)C1=Cc2sc(CN3CC(CN)C3)cc2N=C(N)C1 [TAZ-211]
22,3.78,CCCN(OCC)C(=O)C1=Cc2sc(CN3C[C@@H]4CN(C(=O)OC(C)(C)C)C[C@@H]4C3)cc2N=C(N)C1 [TAZ-242]
23,0.164,CCCN(OCC)C(=O)C1=Cc2sc(CN3CCC(N)CC3)cc2N=C(N)C1 [TAZ-243]
24,1.11,CCCN(OCC)C(=O)C1=Cc2sc(CN3CC4(CCN4Cc4ccccc4)C3)cc2N=C(N)C1 [TAZ-246]
25,0.418,CCCN(OCC)C(=O)C1=Cc2sc(CN3C[C@H]4CNC[C@H]4C3)cc2N=C(N)C1 [TAZ-247]
26,1.11,CCCN(OCC)C(=O)C1=Cc2sc(CN3C[C@H]4CN(C(=O)OC(C)(C)C)C[C@@H]4C3)cc2N=C(N)C1 [TAZ-248]
27,3.41,CCCN(Cc1ncco1)C(=O)C1=Cc2sc(CC3CNC3)cc2N=C(N)C1 [TAZ-256]
